Source: ChEMBL document CHEMBL5390223, “Strategies for the Discovery of Oxazolidinone Antibacterial Agents: Development and Future Perspectives” (J Med Chem, 2023)
≈ marks a conversion by molar mass, not a printed value.

Columns and labels:
[1] = tested on: Staphylococcus aureus; test: Antibacterial activity against Staphylococcus aureus ATCC 25923 assessed as reduction in bacterial growth incubated for 18 to 24 hrs by microbroth dilution method; type: functional; settings: time 18-24 hrs
[2] = tested on: Enterococcus faecium; test: Antibacterial activity against Enterococcus faecium ATCC 19434 assessed as reduction in microbial growth after 24 hrs by two-fold serial dilution method; type: functional
[3] = tested on: Streptococcus pneumoniae; test: Antibacterial activity against Streptococcus pneumoniae assessed as reduction in bacterial cell growth inhibition by broth microdilution method; type: functional
[4] = target: T1, Amine oxidase [flavin-containing] B (Homo sapiens, UniProt P27338); test: Inhibition of MAO-B (unknown origin)
T1 sequence (P27338 whole entry): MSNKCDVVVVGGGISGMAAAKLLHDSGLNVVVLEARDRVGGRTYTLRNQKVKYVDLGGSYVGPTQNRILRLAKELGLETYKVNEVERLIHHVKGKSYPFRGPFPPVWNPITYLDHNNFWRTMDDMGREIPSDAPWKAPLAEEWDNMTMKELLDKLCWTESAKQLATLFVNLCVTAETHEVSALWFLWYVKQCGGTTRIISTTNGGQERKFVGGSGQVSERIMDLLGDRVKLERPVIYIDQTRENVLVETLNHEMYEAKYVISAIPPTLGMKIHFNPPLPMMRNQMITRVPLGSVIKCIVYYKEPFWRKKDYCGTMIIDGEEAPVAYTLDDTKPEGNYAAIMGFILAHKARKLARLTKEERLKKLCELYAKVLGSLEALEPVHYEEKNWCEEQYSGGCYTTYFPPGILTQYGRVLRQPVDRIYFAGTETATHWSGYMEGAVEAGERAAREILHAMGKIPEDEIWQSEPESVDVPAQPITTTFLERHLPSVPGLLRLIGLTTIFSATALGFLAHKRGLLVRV

[5] = tested on: Staphylococcus aureus; test: Antimicrobial activity against methicillin-resistant Staphylococcus aureus assessed as microbial growth inhibition; type: functional
[6] = tested on: Staphylococcus aureus; test: Antibacterial activity against methicillin-susceptible Staphylococcus aureus assessed as reduction in bacterial cell growth; type: functional
[7] = tested on: Enterococcus faecium; test: Antimicrobial activity against Vancomycin-resistant Enterococcus faecium ATCC 51559 assessed as growth inhibition after 14 to 16 hrs by CLSI based broth dilution method; type: functional; settings: time 14-16 hrs
[8] = tested on: Enterococcus; test: Antibacterial activity against vancomycin-resistant Enterococci assessed as reduction in bacterial cell growth incubated for 24 hrs by CLSI-microbroth dilution method; type: functional
[9] = tested on: Moraxella catarrhalis; test: Antibacterial activity against Moraxella catarrhalis ATCC 8176 assessed as inhibition in bacterial growth measured after 24 hrs by broth microdilution method; type: functional
[10] = tested on: Moraxella catarrhalis; test: Antibacterial activity against Moraxella catarrhalis assessed as inhibition of bacterial growth measured after 24 hrs by broth microdilution method; type: functional
[11] = tested on: Escherichia coli; test: Antibacterial activity against Escherichia coli assessed as inhibition of bacterial cell growth measured after 24 hrs by broth microdilution method; type: functional
[12] = tested on: Haemophilus influenzae; test: Antibacterial activity against Haemophilus influenzae assessed as reduction in bacterial cell growth measured after 24 hrs by broth microdilution method; type: functional
[13] = tested on: Streptococcus pneumoniae; test: Antibacterial activity against Streptococcus pneumoniae assessed as reduction in bacterial cell growth measured after 24 hrs by broth microdilution method; type: functional
[14] = tested on: Staphylococcus aureus; test: Antibacterial activity against Staphylococcus aureus HG001 assessed as reduction in bacterial cell growth incubated for 18 hrs by two-fold serial dilution method; type: functional
[15] = tested on: Pseudomonas aeruginosa; test: Antibacterial activity against Pseudomonas aeruginosa PAO1 assessed as bacterial growth inhibition incubated for 18 hrs by two-fold serial dilution method; type: functional
[16] = tested on: Mycobacterium tuberculosis; test: Antimycobacterial activity against Mycobacterium tuberculosis H37Rv assessed as reduction in bacterial cell growth incubated for 6 days by Alamar blue staining based assay; type: functional; settings: 144 h, time 6 day
[17] = tested on: Staphylococcus aureus; test: Antibacterial activity against methicillin-susceptible Staphylococcus aureus infected in Swiss albino mouse assessed as reduction in bacterial growth by measuring effective dose administered orally 2 to 4 times a day for 2 consecutive days; type: functional; settings: route po
[18] = tested on: Enterococcus faecalis; test: Antibacterial activity against vancomycin-resistant Enterococcus faecalis […] infected in Swiss albino mouse assessed as reduction in bacterial growth by measuring effective dose administered orally 2 to 4 times a day for 2 consecutive days; type: functional; settings: route po
[19] = tested on: Staphylococcus aureus; test: Antibacterial activity against Staphylococcus aureus ATCC 25923 assessed as reduction in microbial growth incubated for 24 hrs by micro-plate reader assay; type: functional
[20] = tested on: Staphylococcus aureus; test: Antibacterial activity against methicillin-resistant Staphylococcus aureus […] assessed as inhibition of bacterial growth incubated for 24 hrs by microplate reader assay; type: functional
[21] = tested on: Enterococcus faecalis; test: Antibacterial activity against vancomycin-resistant Enterococcus faecalis ATCC 51299 assessed as reduction in bacterial cell growth incubated for 24 hrs by broth microdilution method; type: functional
[22] = tested on: Staphylococcus aureus; test: Antibacterial activity against methicillin-resistant Staphylococcus aureus ATCC 33592 assessed as reduction in bacterial cell growth incubated for 18 hrs by microplate reader assay; type: functional
[23] = tested on: Staphylococcus aureus; test: Antibacterial activity against methicillin-susceptible Staphylococcus aureus […] assessed as reduction in bacterial cell growth incubated for 18 hrs by microplate reader assay; type: functional
[24] = tested on: Enterococcus faecium; test: Antimicrobial activity against Vancomycin-resistant Enterococcus faecium ATCC 700221 assessed as growth inhibition after 14 to 16 hrs by CLSI based broth dilution method; type: functional; settings: time 14-16 hrs
[25] = tested on: Enterococcus faecium; test: Antibacterial activity against vancomycin-resistant Enterococcus faecium infected in mouse assessed as reduction in bacterial growth by measuring effective dose administered orally; type: functional; settings: route po
[26] = tested on: Staphylococcus aureus; test: Antibacterial activity against methicillin-resistant Staphylococcus aureus infected in mouse assessed as reduction in bacterial growth by measuring effective dose administered orally; type: functional; settings: route po
[27] = tested on: Staphylococcus aureus; test: Antibacterial activity against methicillin-susceptible Staphylococcus aureus infected in mouse assessed as reduction in bacterial growth by measuring effective dose administered orally; type: functional; settings: route po
[28] = Oral bioavailability in rat at 2 mg/kg; type: ADME, organism-based; settings: in vivo
[29] = Plasma protein binding in rat plasma at 10 mg/kg by LC-MS/MS analysis; type: ADME, organism-based; settings: read-out: PPB (converted)
[30] = tested on: Escherichia coli; test: Antibacterial activity against Escherichia coli Delta tolC mutant assessed as bacterial growth inhibition incubated for 24 hrs by broth microdilution method; type: functional

O=C1C=CN(c2c(F)cc(N3C[C@H](CNc4ccon4)OC3=O)c(F)c2F)CC1 [CONTEZOLID]
MIC [1]: 0.06 µg/mL (≈ 0.147 µM)
MIC [2]: 0.06 µg/mL
MIC [3]: 0.06 µg/mL (≈ 0.147 µM)
IC50 [4]: 30.1 µM

CC(=O)NC[C@H]1CN(c2ccc(N3CCN(C(=O)CO)CC3)c(F)c2)C(=O)O1 [EPEREZOLID]
MIC [5]: 1 µg/mL (≈ 2.54 µM)
MIC [6]: 1 µg/mL (≈ 2.54 µM)
MIC [7]: 1 µg/mL (≈ 2.54 µM)

O=C(NCC(=O)N1CCN(c2ccc(N3C[C@H](Cn4ccnn4)OC3=O)cc2F)CC1)c1ccc([N+](=O)[O-])o1
MIC [8]: 0.06 µg/mL (≈ 0.111 µM)
MIC [9]: 0.25 µg/mL (≈ 0.461 µM)
MIC [10]: 0.06 µg/mL (≈ 0.111 µM)
MIC [11]: 0.06 µg/mL (≈ 0.111 µM)
MIC [12]: 0.06 µg/mL (≈ 0.111 µM)
MIC [13]: 0.06 µg/mL (≈ 0.111 µM)

CC(=O)NC[C@H]1CN(c2ccc(N3CCN(C(=O)COCCOCCn4cc(CNC(=O)C(CNC(=O)C(CNC(=O)CNC(=O)c5cccc(O)c5O)NC(=O)c5cccc(O)c5O)NC(=O)c5cccc(O)c5O)nn4)CC3)c(F)c2)C(=O)O1 (stereo partly drawn)
MIC [14]: 64 µM (≈ 76.8 µg/mL)
MIC [15]: > 64 µM

CC(=O)NC[C@H]1CN(c2ccc(N3CCN(C(=O)OCn4cc(CNC(=O)C(CNC(=O)C(CNC(=O)CNC(=O)c5cccc(O)c5O)NC(=O)c5cccc(O)c5O)NC(=O)c5cccc(O)c5O)nn4)CC3)c(F)c2)C(=O)O1 (stereo partly drawn)
MIC [14]: 16 µM (≈ 18 µg/mL)
MIC [15]: > 64 µM

CC(=O)NC[C@H]1CN(c2ccc(N3CCN(C(=O)CN(CCCNC(=O)c4cccc(O)c4O)C(=O)c4cccc(O)c4O)CC3)c(F)c2)C(=O)O1
MIC [14]: 64 µM (≈ 46.3 µg/mL)
MIC [15]: > 64 µM

CC(=O)NC[C@H]1CN(c2ccc(-c3ccc(CO[C@@H]4COc5nc([N+](=O)[O-])cn5C4)nc3)c(F)c2)C(=O)O1
MIC [16]: 0.15 µg/mL (≈ 0.285 µM)

CC(=O)NC[C@H]1CN(c2ccc(-c3cnc(-n4cncn4)nc3)c(F)c2)C(=O)O1
ED50 [17]: 4.2 mg/kg
ED50 [18]: 8.6 mg/kg
MIC [19]: 0.125 µg/mL

CC(=O)NC[C@H]1CN(c2ccc(N3CCN(C(=O)COCCOCCn4cc(CNC(=O)C(CCCCNC(=O)c5cccc(O)c5O)NC(=O)c5cccc(O)c5O)nn4)CC3)c(F)c2)C(=O)O1 (stereo partly drawn)
MIC [14]: 64 µM (≈ 61.6 µg/mL)
MIC [15]: > 64 µM

CC(=O)NC[C@H]1CN(c2ccc(N3CCN(Cc4ccc([N+](=O)[O-])o4)CC3)c(F)c2)C(=O)O1 [RANBEZOLID]
MIC [20]: 0.125 µg/mL (≈ 0.271 µM)
MIC [21]: 0.125 µg/mL (≈ 0.271 µM)

O=C1O[C@@H](Cn2ccnn2)CN1c1ccc(N2CCOCC2)c(F)c1
MIC [22]: 0.5 µg/mL (≈ 1.44 µM)
MIC [23]: 0.5 µg/mL (≈ 1.44 µM)
MIC [24]: 0.5 µg/mL (≈ 1.44 µM)

Cn1nnc(-c2ccc(-c3ccc(N4C[C@H](CO)OC4=O)cc3F)cn2)n1 [TEDIZOLID]
ED50 [25]: 8.8 mg/kg
ED50 [26]: 8.8 mg/kg
ED50 [27]: 8.8 mg/kg
bioavailability [28]: 91%
fraction unbound [29]: 0.3

CSCC[C@H](NC(=O)[C@H](Cc1ccc(O)cc1)NC(=O)[C@H](CCCCN)NC(=O)[C@@H]1CCCN1C(=O)[C@H](CO)NC(=O)[C@H](Cc1c[nH]c2ccccc12)NCC(=O)N(CCCCNC(=O)c1cccc(O)c1O)C(=O)c1cccc(O)c1O)C(=O)NCC(=O)N1CCN(c2ccc(N3C[C@H](CNC(C)=O)OC3=O)cc2F)CC1
MIC [30]: 1 µM (≈ 1.59 µg/mL)

CC(=O)NC[C@H]1CN(c2ccc(N3CCN(C(=O)OCn4cc(CNC(=O)C(CCCCNC(=O)c5cccc(O)c5O)NC(=O)c5cccc(O)c5O)nn4)CC3)c(F)c2)C(=O)O1 (stereo partly drawn)
MIC [14]: 64 µM (≈ 57 µg/mL)
MIC [15]: > 64 µM
